Article PMC2174406 (Environmental Health Perspectives, 2007)

Key:
thyroid peroxidase (TPO) = target: T1, thyroid peroxidase (TPO) (Homo sapiens, UniProt P07202); test: guaiacol oxidation assay with digitonin-extracted recombinant TPO; type: cell-based
T1 sequence (P07202 19-933): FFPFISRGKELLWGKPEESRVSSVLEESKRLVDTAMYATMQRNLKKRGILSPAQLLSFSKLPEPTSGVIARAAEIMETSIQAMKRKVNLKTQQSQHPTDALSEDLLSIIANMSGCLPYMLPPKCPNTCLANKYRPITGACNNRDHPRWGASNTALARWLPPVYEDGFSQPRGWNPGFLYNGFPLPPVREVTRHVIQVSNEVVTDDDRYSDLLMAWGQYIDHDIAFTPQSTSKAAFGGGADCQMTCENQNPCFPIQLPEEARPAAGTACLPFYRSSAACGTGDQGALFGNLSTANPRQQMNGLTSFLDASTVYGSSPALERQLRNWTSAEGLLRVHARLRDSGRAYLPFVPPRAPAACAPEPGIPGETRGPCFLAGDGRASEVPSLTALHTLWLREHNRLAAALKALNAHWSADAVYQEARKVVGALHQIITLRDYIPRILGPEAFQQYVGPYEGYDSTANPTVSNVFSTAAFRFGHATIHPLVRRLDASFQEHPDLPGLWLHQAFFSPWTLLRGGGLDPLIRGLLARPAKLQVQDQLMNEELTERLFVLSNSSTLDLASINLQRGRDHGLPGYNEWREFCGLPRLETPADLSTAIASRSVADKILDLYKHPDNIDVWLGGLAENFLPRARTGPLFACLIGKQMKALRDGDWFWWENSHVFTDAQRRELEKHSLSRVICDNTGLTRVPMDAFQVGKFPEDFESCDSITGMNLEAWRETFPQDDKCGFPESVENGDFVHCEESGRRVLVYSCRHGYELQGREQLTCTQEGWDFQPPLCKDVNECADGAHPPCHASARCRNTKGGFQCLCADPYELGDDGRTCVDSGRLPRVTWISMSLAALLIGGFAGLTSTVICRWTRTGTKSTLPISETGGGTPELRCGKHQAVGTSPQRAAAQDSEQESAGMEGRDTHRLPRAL

transthyretin (TTR) = transthyretin (TTR) (Homo sapiens, UniProt P02766); test: […]T4 displacement; type: binding; conditions: cited from earlier work

Row | Compound | IC50 (thyroid peroxidase (TPO)) | IC50 (transthyretin (TTR)) [nM]
1 | CC(C)(c1ccc(O)cc1)c1ccc(O)cc1 [bisphenol A] | the industrial chemicals 4-NP and BPA also inhibited TPO | 
2 | O=c1c(-c2ccc(O)cc2)coc2cc(O)ccc12 [daidzein] |  | 1800
3 | O=c1c(-c2ccc(O)cc2)coc2cc(O)cc(O)c12 [genistein] |  | 70
4 | COc1cc2c(=O)c(-c3ccc(O)cc3)coc2cc1O [glycitein] |  | 200
